This note sets out measurements from patent US11530206B2, “Phenylaminopyrimidine amide autophagy inhibitors and methods of use thereof” (Deciphera Pharmaceuticals, LLC, priority 2019, dated 2022).

One experiment deals with T1, ULK1 kinase (Homo sapiens, UniProt O75385, E37A/K38A).
T1 construct: purchased Beryllium
T1 sequence (O75385 1-283 E37A/K38A): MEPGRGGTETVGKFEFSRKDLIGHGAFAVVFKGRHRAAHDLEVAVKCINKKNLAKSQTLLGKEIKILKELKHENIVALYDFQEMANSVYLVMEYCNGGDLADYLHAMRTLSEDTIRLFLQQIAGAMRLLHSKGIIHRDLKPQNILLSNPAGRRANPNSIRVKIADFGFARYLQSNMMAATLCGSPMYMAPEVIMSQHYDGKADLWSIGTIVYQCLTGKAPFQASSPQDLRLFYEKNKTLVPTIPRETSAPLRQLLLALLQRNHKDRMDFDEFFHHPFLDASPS
In words: Biochemical assay for ULK1.3 (coupled pyruvate kinase/lactate dehydrogenase assay, peptide substrate). The settings on record: 0.1 nM ULK1 (residues 1-283), 1 mM ATP. As for the experimental part:
Biochemical Assay for ULK1.3 (SEQ. ID NO: 2)
Inhibition of ULK1 was measured by adding serial diluted test compound (final assay concentration of 1% DMSO). A decrease in absorption at 340 nm was monitored continuously for 6 hours at 30° C. on a multi-mode microplate reader (BioTek). The reaction rate was calculated using the 2-3 h time frame. The reaction rate at each concentration of compound was converted to percent inhibition using controls (i.e. reaction with no test compound and reaction with a known inhibitor) and IC50 values were calculated using software routines in Prism (GraphPad software).

Another experiment has as its target T2, LRRK2 kinase (Homo sapiens, UniProt Q5S007).
T2 construct: purchased Thermo Fisher
In words: Biochemical assay for LRRK2 (coupled pyruvate kinase/lactate dehydrogenase assay). The settings on record: 26.4 nM LRRK2 (residues 970-2528), peptide substrate, 1 mM ATP. As for the experimental part: Example 138. Biochemical Assay for LRRK2 (SEQ. ID NO: 4)
Activity of LRRK2 kinase was determined spectroscopically using a coupled pyruvate kinase/lactate dehydrogenase assay that continuously monitors the ATP hydrolysis-dependent oxidation of NADH (e.g., Schindler et al. Science (2000) 289: 1938-1942). Assays were conducted in 384-well plates (100 μL final volume) using 26.4 nM LRRK2 (Thermo Fisher), 0.1 mM peptide substrate ([…] (SEQ ID NO: 6)), 1.5 units pyruvate kinase, 2.1 units lactate dehydrogenase, 1 mM phosphoenol pyruvate, 0.28 mM NADH and 1 mM ATP in assay buffer (100 mM Tris, pH 7.5, 15 mM MgCl2, 0.5 mM DTT, 0.004% (w/v) BSA, and 0.004% Triton X-100). Inhibition of LRRK2 was measured by adding serial diluted test compound (final assay concentration of 1% DMSO). A decrease in absorption at 340 nm was monitored continuously for 6 hours at 30° C. on a multi-mode microplate reader (BioTek). The reaction rate was calculated using the 2-3 h time frame. The reaction rate at each concentration of compound was converted to percent inhibition using controls (i.e. reaction with no test compound and reaction with a known inhibitor) and IC50 values were calculated using software routines in Prism (GraphPad software).

The test system of experiment [1] is ULK kinase. In words: pATG13 levels of mutant KRas MiaPaCa-2 cells after treatment with ULK inhibitors in combination with trametinib (ELISA). The settings on record: MiaPaCa-2 pancreatic cancer cells, 250 nM trametinib, overnight, pS318-ATG13. The class given is cell-based, human. How it is done:
(§1) MiaPaCa-2 human pancreatic cancer cells (10000 cells/well) were added to a 384-well tissue-culture treated plate in 50 μL of pre-warmed DMEM medium supplemented with 10% characterized fetal bovine serum (Invitrogen, Carlsbad, Calif.), 100 units/mL penicillin G, 100 µg/mL streptomycin, and 2.5% Horse Serum and allowed to grow overnight at 37° C., 5% CO2, and 95% humidity. The following day, 10 μL of media containing trametinib or DMSO as a control was added to wells. […] A dose response of a test compound (0.6 μL per well) was added. DMSO (0.6 μL) was added to control wells. The plate was briefly shaken to mix wells and then incubated at 37° C. overnight. The next day, the media was aspirated and cells were washed with Dulbecco's Phosphate Buffered Saline (Gibco). Cells were lysed using MPER lysis buffer (Pierce, Rockford, Ill.) containing Halt Phosphatase and Protease Inhibitors (Pierce, Rockford, Ill.) and Phosphatase inhibitor cocktail 2 (Sigma, St. Louis, Mo.) at 4° C. for 10 minutes with shaking.
(§2) Plate wells were washed with ELISA wash buffer. Cell lysate was added to wells and incubated at room temperature for 2 hours. Plate wells were washed with ELISA wash buffer. […] Plate wells were washed with ELISA wash buffer. […] Plate wells were washed with ELISA wash buffer. […] The reaction was stopped with 2N Sulfuric Acid. The plate was analyzed at on a plate reader measuring absorbance at 450 nm and 540 nm (background). Signal was calculated by first subtracting the background absorbance at 540 nm from the absorbance at 450 nm for each well. Next, the background corrected absorbance at 450 nm from blank wells was subtracted from test wells. Data was compared to control wells to determine % ATG13 phosphorylation. GraphPad Prism was used to calculate IC50 values.
Background: In an ELISA, binding on a coated surface is turned into a signal by an enzyme label.

Experiment [2] relates to ULK kinase. Briefly: pATG13 levels of mutant KRas A549 cells after treatment with ULK inhibitors in combination with trametinib (ELISA). The settings on record: A549 (KRAS mutant) lung cancer cells, 250 nM trametinib, overnight, pS318-ATG13. The class given is cell-based, human. As for the experimental part:
Cellular Inhibition of ULK Kinase Substrate ATG13 Protein pATG13 Levels of Mutant KRas A549 Cells after Treatment with ULK Inhibitors in Combination with Trametinib
as §1, with “A549 (KRAS mutant)” for “MiaPaCa-2”, “lung” for “pancreatic”, “(6,000” for “(10000”, “G, and” for “G,”, “μg/mL streptomycin” for “µg/mL streptomycin, and 2.5% Horse Serum”
as §2

pIC50: −log10 of the molar value.

T2 sequence (Q5S007 with tags, fused parts or gaps): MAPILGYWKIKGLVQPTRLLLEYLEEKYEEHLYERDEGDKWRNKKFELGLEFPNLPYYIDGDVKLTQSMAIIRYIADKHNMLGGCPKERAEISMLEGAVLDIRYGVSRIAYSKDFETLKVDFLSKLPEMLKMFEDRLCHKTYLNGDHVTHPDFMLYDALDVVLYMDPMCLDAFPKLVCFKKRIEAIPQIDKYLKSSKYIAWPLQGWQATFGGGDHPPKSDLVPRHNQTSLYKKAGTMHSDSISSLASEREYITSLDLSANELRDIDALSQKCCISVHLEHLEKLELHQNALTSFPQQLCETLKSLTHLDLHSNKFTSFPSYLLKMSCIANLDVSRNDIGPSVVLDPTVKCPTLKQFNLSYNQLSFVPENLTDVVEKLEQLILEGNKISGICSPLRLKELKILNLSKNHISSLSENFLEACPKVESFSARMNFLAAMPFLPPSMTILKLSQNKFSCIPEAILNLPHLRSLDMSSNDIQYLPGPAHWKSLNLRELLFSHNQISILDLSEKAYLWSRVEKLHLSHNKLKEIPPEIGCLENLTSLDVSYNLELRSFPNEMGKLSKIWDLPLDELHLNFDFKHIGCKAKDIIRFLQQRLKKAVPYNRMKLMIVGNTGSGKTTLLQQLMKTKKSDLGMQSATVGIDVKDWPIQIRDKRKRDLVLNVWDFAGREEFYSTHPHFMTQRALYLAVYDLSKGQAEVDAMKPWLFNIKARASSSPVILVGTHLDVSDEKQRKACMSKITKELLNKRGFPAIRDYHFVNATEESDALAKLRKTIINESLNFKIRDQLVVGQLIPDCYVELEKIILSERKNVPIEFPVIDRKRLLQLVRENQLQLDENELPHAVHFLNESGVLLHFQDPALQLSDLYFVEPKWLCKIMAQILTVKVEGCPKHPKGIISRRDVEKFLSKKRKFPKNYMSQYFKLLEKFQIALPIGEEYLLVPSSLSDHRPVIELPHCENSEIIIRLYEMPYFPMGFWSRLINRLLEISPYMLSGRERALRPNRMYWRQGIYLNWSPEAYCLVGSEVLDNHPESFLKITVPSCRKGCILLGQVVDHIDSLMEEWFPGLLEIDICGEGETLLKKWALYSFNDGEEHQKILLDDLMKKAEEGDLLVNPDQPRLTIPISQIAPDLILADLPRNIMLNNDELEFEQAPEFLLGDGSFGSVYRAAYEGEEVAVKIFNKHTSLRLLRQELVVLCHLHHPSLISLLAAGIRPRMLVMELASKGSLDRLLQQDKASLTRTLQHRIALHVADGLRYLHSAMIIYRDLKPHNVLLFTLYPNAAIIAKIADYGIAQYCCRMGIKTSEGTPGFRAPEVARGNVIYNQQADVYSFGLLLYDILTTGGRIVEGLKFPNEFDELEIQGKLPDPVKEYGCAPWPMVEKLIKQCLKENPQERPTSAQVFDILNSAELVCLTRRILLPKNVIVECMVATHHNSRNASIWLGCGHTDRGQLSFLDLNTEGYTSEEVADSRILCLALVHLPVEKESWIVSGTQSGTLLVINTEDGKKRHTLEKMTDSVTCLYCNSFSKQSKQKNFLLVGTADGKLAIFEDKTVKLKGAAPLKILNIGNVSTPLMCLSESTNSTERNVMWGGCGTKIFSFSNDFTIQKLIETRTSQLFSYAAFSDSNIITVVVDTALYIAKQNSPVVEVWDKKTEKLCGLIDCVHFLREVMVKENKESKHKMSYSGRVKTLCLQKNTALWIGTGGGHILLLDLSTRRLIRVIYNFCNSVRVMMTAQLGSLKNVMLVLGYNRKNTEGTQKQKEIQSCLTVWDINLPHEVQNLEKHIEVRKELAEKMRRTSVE

One may read the pIC50 as −log10 of the IC50, conventionally taken in molar units. On to `CC(C)c1cc(N2CCN(C)CC2)ccc1Nc1ncc(C(F)(F)F)c(NCCCN2CCCCC2=O)n1` [Example 33], for which the pIC50 on ULK1 kinase is 7.60 to 9.00; at LRRK2 kinase, 6.22 to 6.52; in the experiment with ULK kinase [1], 7.00 to 8.00; in the experiment on ULK kinase [2] it was 6.52 to 7.00.

Take `CCc1cc(N2CC[C@H](C#N)C2)ccc1Nc1ncc(C(F)(F)F)c(NCCCN2CCCCC2=O)n1` [Example 48]: the pIC50 on ULK1 kinase was 6.30 to 7.00; against LRRK2 kinase it was 6.52 to 7.00.

`CN1CCN(c2ccc(Nc3ncc(C(F)(F)F)c(NCCCN4CCCCC4=O)n3)c(C3CC3)c2)CC1=O` [Example 49]: the negative-log IC50 (pIC50) is 6.30 to 7.00 against ULK1 kinase and 6.52 to 7.00 against LRRK2 kinase.

Turning to `CCc1cc(N2CCN(C)CC2=O)ccc1Nc1ncc(C(F)(F)F)c(NCCCN2CCCOC2=O)n1` [Example 56], the pIC50 was 7.00 to 7.60 against ULK1 kinase and 6.52 to 7.00 on LRRK2 kinase.

In the case of `CCc1cc(N2CCN(C)CC2)ccc1Nc1ncc(C2CC2)c(NCCCN2CCCOCC2=O)n1` [Example 61], the pIC50 was less than 6.30 against ULK1 kinase and less than 6.22 at LRRK2 kinase.

In the case of `O=C1COCCCN1CCCNc1nc(Nc2ccc(N3CCNCC3)cc2C2CC2)ncc1C(F)(F)F` [Example 62], the pIC50 against ULK1 kinase was 7.60 to 9.00; with ULK kinase [1] it was 7.00 to 8.00; with ULK kinase [2], 6.52 to 7.00.

Take `CCc1cc(N2CCN(C)CC2)c(F)cc1Nc1ncc(C(F)(F)F)c(NCCCN2CCCOCC2=O)n1` [Example 64]: the pIC50 at ULK1 kinase was 6.30 to 7.00; against LRRK2 kinase, 7.00 to 9.00.

Take `CCc1cc(N2CCN(C)CC2)ncc1Nc1ncc(C(F)(F)F)c(NCCCN2CCOCCC2=O)n1` [Example 67]: the pIC50 against ULK1 kinase was 7.60 to 9.00; in the experiment on ULK kinase [1], 6.52 to 7.00; in the experiment with ULK kinase [2], 6.52 to 7.00.

Turning to `Cc1cc(N2C[C@H]3C[C@@H]2CO3)ccc1Nc1ncc(C(F)(F)F)c(NCCCN2CCOCCC2=O)n1` [Example 78], the pIC50 on ULK1 kinase was 6.30 to 7.00; against LRRK2 kinase it was 6.52 to 7.00.

For the compound `CCc1cc(N2CCN(C)CC2)ccc1Nc1ncc(Cl)c(NCCCN2CCOCCC2=O)n1` [Example 80], the figures for the negative logarithm of the IC50 (pIC50) against ULK1 kinase, in the experiment with ULK kinase [1] and with ULK kinase [2] were 7.00 to 7.60, 6.52 to 7.00 and less than 6.22, respectively.

With `CN1CCN(c2ccc(Nc3ncc(Br)c(NCCCN4CCOCCC4=O)n3)c(C3CC3)c2)CC1` [Example 81], the pIC50 on ULK1 kinase was 7.60 to 9.00; in the experiment with ULK kinase [1] it was 7.00 to 8.00; in the experiment on ULK kinase [2], 6.52 to 7.00.

With `CN1CCN(c2ccc(Nc3ncc(Cl)c(NCCCN4CCOCCC4=O)n3)c(C3CC3)c2)CC1` [Example 82], the pIC50 was 7.00 to 7.60 on ULK1 kinase, 6.52 to 7.00 in the experiment with ULK kinase [1] and 6.52 to 7.00 with ULK kinase [2].

`CC(C)c1cc(N2CCN(C)CC2)ccc1Nc1ncc(Cl)c(NCCCN2CCOCCC2=O)n1` [Example 88]: the pIC50 against ULK1 kinase was 7.00 to 7.60; in the experiment with ULK kinase [1] it was 6.52 to 7.00; in the experiment on ULK kinase [2], 6.22 to 6.52.

With `CCc1cc(N2CC[C@@H](C#N)C2)ccc1Nc1ncc(C(F)(F)F)c(NCCCN2CCCCC2=O)n1` [Example 93], the pIC50 on ULK1 kinase is 6.30 to 7.00; at LRRK2 kinase, 6.52 to 7.00.

Turning to `CCc1cc(N2CCN(C)CC2)ccc1Nc1ncc(Br)c(NCCCN2CCCOCC2=O)n1` [Example 100], the pIC50 is 7.00 to 7.60 against ULK1 kinase, 6.52 to 7.00 with ULK kinase [1] and 6.52 to 7.00 in the experiment with ULK kinase [2].

Turning to `CN1CCN(c2ccc(Nc3cc(NCCCN4CCOCCC4=O)c(C(F)(F)F)cn3)c(C3CC3)c2)CC1` [Example 101], the figures for the pIC50 on ULK1 kinase, in the experiment with ULK kinase [1] and with ULK kinase [2] were 7.60 to 9.00, less than 6.22 and 6.22 to 6.52, respectively.

Take `CN1CCN(c2ccc(Nc3cc(NCCCN4CCCOC4=O)c(C(F)(F)F)cn3)cc2)CC1` [Example 102]: the pIC50 on ULK1 kinase was 7.60 to 9.00; with ULK kinase [1], 6.52 to 7.00; with ULK kinase [2] it was 6.52 to 7.00.

`CN1CCN(c2ccc(Nc3cc(NCCCN4CCCCC4=O)c(C(F)(F)F)cn3)cc2)CC1` [Example 103]: the pIC50 at ULK1 kinase was 7.60 to 9.00; in the experiment on ULK kinase [1] it was 7.00 to 8.00; with ULK kinase [2], 7.00 to 8.00.

For `CN1CCN(c2ccc(Nc3cc(NCCCN4CCOCCC4=O)c(C(F)(F)F)cn3)cc2)CC1` [Example 110], the results for the pIC50 at ULK1 kinase, in the experiment with ULK kinase [1] and in the experiment on ULK kinase [2] were 7.60 to 9.00, 7.00 to 8.00 and 6.52 to 7.00, respectively.

Consider `CN1CCN(c2ccc(Nc3ncc(C(F)(F)F)c(NCCCN4CCCOC4=O)n3)c(C3CCCC3)c2)CC1` [Example 111], for which the pIC50 against ULK1 kinase is 7.60 to 9.00; against LRRK2 kinase, 6.52 to 7.00.

In the case of `CN1CCN(c2ccc(Nc3ncc(C(F)(F)F)c(NCCCN4CCCCC4=O)n3)c(C3CCCC3)c2)CC1` [Example 113], the pIC50 at ULK1 kinase is 7.60 to 9.00; on LRRK2 kinase it was 6.52 to 7.00.

Consider `CCc1cc(N2CCN(C)C(=O)C2)ccc1Nc1ncc(C(F)(F)F)c(NCCCN2CCCOC2=O)n1` [Example 114], for which the pIC50 against ULK1 kinase was 7.00 to 7.60; against LRRK2 kinase, 7.00 to 9.00.

Take `CCc1cc(N2CCN(C)C(=O)C2)ccc1Nc1ncc(C(F)(F)F)c(NCCCN2CCOCCC2=O)n1` [Example 115]: the pIC50 at ULK1 kinase is 6.30 to 7.00; against LRRK2 kinase, 6.52 to 7.00.

With `CN(C)C1CN(c2ccc(Nc3ncc(Br)c(NCCCN4CCCCC4=O)n3)c(C3CC3)c2)C1` [Example 118], the pIC50 against ULK1 kinase was 7.00 to 7.60; at LRRK2 kinase it was 7.00 to 9.00.

On to `CCc1cc(N2C[C@H]3C[C@@H]2CN3C)ccc1Nc1ncc(C(F)(F)F)c(NCCCN2CCCOC2=O)n1` [Example 123], for which the pIC50 on ULK1 kinase was 7.60 to 9.00; against LRRK2 kinase it was 6.52 to 7.00; in the experiment on ULK kinase [2] it was 7.00 to 8.00.

Consider `CN1C2CCC1CN(c1ccc(Nc3ncc(C(F)(F)F)c(NCCCN4CCCCC4=O)n3)c(C3CC3)c1)C2` [Example 130], for which the pIC50 was 7.00 to 7.60 against ULK1 kinase, 6.22 to 6.52 with ULK kinase [1] and 6.22 to 6.52 with ULK kinase [2].

In the case of `CN(C)CC1CN(c2ccc(Nc3ncc(C(F)(F)F)c(NCCCN4CCOCCC4=O)n3)c(C3CC3)c2)C1` [Example 137], the results for the pIC50 on ULK1 kinase, with ULK kinase [1] and with ULK kinase [2] were 7.60 to 9.00, 7.00 to 8.00 and 6.52 to 7.00, respectively.

Consider `CCc1cc(N2CC3CCC(C2)N3)ccc1Nc1ncc(C(F)(F)F)c(NCCCN2CCOCCC2=O)n1` [Example 150], for which the negative-log IC50 (pIC50) was 7.60 to 9.00 against ULK1 kinase, 7.00 to 8.00 with ULK kinase [1] and 6.52 to 7.00 in the experiment with ULK kinase [2].
